Measurements: the supplement of paper PMC10307832

Key:
Test in all cases: relative viability (nuclei count vs DMSO), 5 days (fraction); higher = more cells survive
[1] = compound: CC1=CC(=CC=C1)NC2=NC(=CS2)C3=CC=NC=C3 + Cc1nc(Nc2ncc(C(=O)Nc3c(C)cccc3Cl)s2)cc(N2CCN(CCO)CC2)n1 [Dasatinib] (partner 0.075 µM)
Summary of the method: (§1)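 Lung cancer cell lines in 1536-well plates got either a single drug or a fixed anchor-drug dose together with five library-drug doses (not always all listed) in √10 steps, by pin tool, on the day after seeding. Nuclei were counted after 5 days, and relative viability is the treated-to-vehicle ratio of nuclei counts. Values are medians of duplicate plates.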

Masitinib + Crizotinib = compound: Cc1ccc(NC(=O)c2ccc(CN3CCN(C)CC3)cc2)cc1Nc1nc(-c2cccnc2)cs1 [Masitinib] + C[C@@H](Oc1cc(-c2cnn(C3CCNCC3)c2)cnc1N)c1c(Cl)ccc(F)c1Cl [Crizotinib] (partner 1 µM)
Summary of the method: as §1

[2] = compound: CC1=CC(=CC=C1)NC2=NC(=CS2)C3=CC=NC=C3 + CS(=O)(=O)CCNCc1ccc(-c2ccc3ncnc(Nc4ccc(OCc5cccc(F)c5)c(Cl)c4)c3c2)o1 [Lapatinib] (partner 2 µM)
Summary of the method: as §1

Masitinib + Olaparib = compound: Cc1ccc(NC(=O)c2ccc(CN3CCN(C)CC3)cc2)cc1Nc1nc(-c2cccnc2)cs1 [Masitinib] + O=C(c1cc(Cc2n[nH]c(=O)c3ccccc23)ccc1F)N1CCN(C(=O)C2CC2)CC1 [Olaparib] (partner 8 µM)
Summary of the method: as §1

Cell Line	relative viability ([1]; first compound 0.08 µM)	relative viability ([1]; first compound 0.253 µM)	relative viability ([1]; first compound 0.8 µM)	relative viability ([1]; first compound 2.53 µM)	relative viability ([1]; first compound 8 µM)	relative viability (Masitinib + Crizotinib; first compound 0.01 µM)	relative viability (Masitinib + Crizotinib; first compound 0.03162 µM)	relative viability (Masitinib + Crizotinib; first compound 0.1 µM)	relative viability (Masitinib + Crizotinib; first compound 0.3162 µM)	relative viability (Masitinib + Crizotinib; first compound 1 µM)	relative viability ([2]; first compound 0.08 µM)	relative viability ([2]; first compound 0.253 µM)	relative viability ([2]; first compound 0.8 µM)	relative viability ([2]; first compound 2.53 µM)	relative viability ([2]; first compound 8 µM)	relative viability (Masitinib + Olaparib; first compound 0.01 µM)	relative viability (Masitinib + Olaparib; first compound 0.03162 µM)	relative viability (Masitinib + Olaparib; first compound 0.1 µM)	relative viability (Masitinib + Olaparib; first compound 0.3162 µM)	relative viability (Masitinib + Olaparib; first compound 1 µM)
201T	0.59	0.515	0.497	0.508	0.382	0.836	1.03	0.99	1.02	0.935	0.982	0.956	0.97	0.767	0.752	0.702	0.901	0.765	0.721	0.806
A549	–	–	–	–	–	0.666	0.805	0.823	0.686	0.722	0.863	0.893	0.898	0.891	0.809	0.363	0.184	0.338	0.301	0.325
A-427	0.61	0.658	0.681	0.681	0.518	–	0.889	–	0.845	0.783	0.972	1.09	1.03	–	0.892	0.621	0.711	0.654	0.489	0.663
ABC-1	0.659	0.473	0.552	0.445	0.404	0.965	1.17	1.15	1.12	1.18	1.24	1.14	1.03	1.02	1.01	0.727	1.39	0.844	0.67	0.78
BEN	0.304	0.273	0.364	0.222	0.327	0.888	0.834	1.09	1.18	0.765	0.733	0.62	0.498	0.669	0.741	1.21	1.1	1.4	1.23	1.08
CAL-12T	0.423	0.321	0.332	0.299	0.245	0.625	0.472	0.623	0.66	0.464	0.534	–	0.649	0.608	0.678	0.716	0.696	0.688	0.712	0.708
COR-L23	0.479	0.511	0.389	0.338	0.402	0.645	0.607	0.768	0.59	0.629	0.709	0.878	0.651	1.07	0.881	0.35	0.329	0.361	0.309	0.27
COR-L 105	0.284	0.289	0.349	0.279	0.306	0.657	0.803	0.876	0.686	0.717	0.289	0.41	0.382	0.408	0.389	0.655	0.532	0.689	0.494	0.498
Calu-6	–	–	–	–	–	0.781	0.808	0.886	0.843	0.73	0.945	0.969	0.86	0.873	0.823	0.53	0.656	0.63	0.563	0.547
ChaGo-K-1	0.547	0.675	0.605	0.49	0.54	1.33	1.12	1.51	1.05	1.12	–	–	–	–	–	0.39	0.435	0.405	0.35	0.392
EBC-1	–	–	–	–	–	0.191	0.205	0.195	0.162	0.212	0.202	0.238	0.204	0.206	0.167	0.679	0.673	0.814	0.713	0.615
EKVX	0.208	0.518	0.552	0.446	0.306	–	0.789	0.79	0.825	0.922	0.182	0.189	0.206	0.163	0.171	0.653	0.704	0.766	–	0.744
EMC-BAC-2	0.279	0.312	0.293	0.306	0.332	0.655	0.648	0.845	0.705	0.82	0.78	0.85	0.839	0.829	0.848	0.457	0.484	0.481	0.416	0.456
EPLC-272H	0.396	0.338	0.273	0.288	0.333	0.881	0.81	0.803	0.842	0.871	0.831	–	0.867	–	0.908	0.927	–	0.866	0.655	0.768
H3255	0.397	0.347	0.489	0.341	0.528	–	0.767	0.711	0.722	0.815	0.225	0.325	0.203	0.195	0.211	0.474	0.566	0.513	0.545	0.555
